Experimental data taken from US20240207244A1, “COMPOSITIONS AND METHODS FOR TREATING NEURODEGENERATIVE DISORDERS THROUGH INHIBITION OF CD44 AND FERM PROTEIN INTERACTION” (Arizona Board of Regents on Behalf of the University of …, priority 2021, published 2024).

What was measured:
[1] = biological target: T1, Moesin (Homo sapiens, UniProt P26038); assay: Saturation transfer difference NMR (STD-NMR) binding to Moesin
Excerpt: Following in silico docking, we (the inventors) triage binding using saturation transfer difference NMR (STD-NMR) as is routinely done in our laboratory to define binding of small molecules (see, Mollasalehi, N. et al. ACS Chem Biol, doi: 10.1021/acschembio.0c00494 (2020): Francois-Moutal, L. et al. ACS Chem Biol 14, 2006-2013, doi: 10.1021/acschembio.9b00481 (2019): François-Moutal, L. et al. ACS Chem Biol 13, 3000-3010, doi:10.1021/acschembio.8b00745 (2018)) (FIG. 2A). After testing the ability of all compounds to bind to Moesin. […] We then measured the affinity of binding using micro-scale thermophoresis (MST), a technique to quantify biomolecular interactions, based on thermophoresis. Concentration-dependent measurements were done using MST to determine dissociation constant for binding of P1 to Moesin and we obtained Apparent Kd=Xxx±xxx μM. Data are presented as mean±SD (n=3) (FIG. 3).

[2] = biological target: T1, Moesin; assay: Cellular Thermal Shift Assay (CETSA); assay type: cell-based
Excerpt: CETSA: To further ascertain the binding between Moesin and small compounds, we are currently developing Cellular Thermal Shift Assay (CETSA), a convenient cell-based test for identifying target engagement between ligands (i.e. a drug candidate) and their protein targets (PMID:XXX). CETSA has been previously used to measure the binding of small molecules to Ezrin (another FERM protein similar to Moesin) in a cellular environment (PMID: 33003361). The assay consists of the measurement of the shift in thermal stability of the target protein (Moesin) in the presence of the small molecules. The apparent melting temperature (Tm), observed in the presence or the absence of a bioactive compound, can be evaluated by measuring the persistence of soluble protein at different temperatures. If the compound binds to the protein of interest, a shift in melting temperature is observed.

[3] = biological target: GST (Schistosoma japonicum, UniProt P08515); assay: STD-NMR binding to control GST; conditions: control protein
Chain of GST (P08515 2-218 limits assumed): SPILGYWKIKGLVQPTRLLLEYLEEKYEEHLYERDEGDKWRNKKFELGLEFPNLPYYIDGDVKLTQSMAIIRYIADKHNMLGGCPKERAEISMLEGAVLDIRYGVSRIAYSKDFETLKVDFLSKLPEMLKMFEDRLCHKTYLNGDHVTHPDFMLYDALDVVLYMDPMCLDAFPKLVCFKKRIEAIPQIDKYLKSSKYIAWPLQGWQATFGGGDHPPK

[4] = test system: HMC3 cells; assay: Flow cytometry of HLA-DR expression in IFNγ-stimulated HMC3 microglial cells; assay type: cell-based, Human; conditions: HMC3 cells pre-incubated 24 h, then stimulated with IFNγ
Excerpt: Once we define the binding using purified protein, we validate the binding in cells. We have done this through imaging by using the Lumio™ system for site-specific fluorescent labeling of recombinant proteins in living cells, flow cytometry assays, and cellular thermal shift assay (CETSA). • Lumio™ System Imaging: This recently developed method relies on FLASH (Fluorescein Arsenical Hairpin) technology, which uses biarsenical labeling reagents to bind and detect proteins containing a tetracysteine (TC) motif (Griffin et al., 1998). The biarsenical labeling reagents are nonfluorescent until they bind the TC motif at which time, they become highly fluorescent. Both, a genetically engineered CD44 containing a TC motif, and mCherry-Moesin, were co-transfected into Immortalized Human Microglia (SV40 cell line) (FIG. 5). Ongoing work is being done to optimize this protocol and adapt it for use with small compounds. • Flow Cytometry: Current studies of microglial activation are widely performed to study neuroinflammation and test small compounds and their anti-inflammatory properties. IFNγ was be used to activate macrophage response in HMC3 cells (Human microglial cell line, PMID: 30200996), while flow cytometry was employed in combination with small compounds. […] Reactive microglia expressing the histocompatibility glycoprotein HLA-DR were detected using flow cytometry. […]

[5] = biological target: T1, Moesin; assay: Biophysical binding of P1 analogs (SAR); conditions: first round of analogs
Excerpt: Indeed, such experiments defined the known structural interactions between CD44, and Msn based on a co-crystal structure of this protein-protein complex. It was proposed that the binding of Msn through CD44 could be mimicked by small molecules. By performing in silico docking on the CD44 binding pocket, using a virtual screen of 50,000 compounds and 200,000 pharmacophores and guided by FERM domain-peptide co-crystal structures, such experiments identified druggable pockets in these FERM proteins. Top scoring compounds were tested for binding to recombinant purified FERM proteins using several biophysical methods.
• Before engaging in custom synthesis, we searched for additional commercially available analogs to expand SAR at the east part of the P1, keeping the piperidinemethyl-heterocycle constant (FIG. 7, red oval). A total of 4.2M compounds were searched for a match to P1 features. “Drug-like” ZINC database 2019 and ChemBridge catalogue provided P1 analogues commercially available. 18 compounds matching the search criteria were selected and tested for biophysical binding. […] Our next SAR analogs will thus include structural modifications that will explore hydrogen bond patterns and the size of the fragments in the 5-hydroxypiperonyl/pyrazolopyridine area. […]

T1 sequence (P26038 whole entry): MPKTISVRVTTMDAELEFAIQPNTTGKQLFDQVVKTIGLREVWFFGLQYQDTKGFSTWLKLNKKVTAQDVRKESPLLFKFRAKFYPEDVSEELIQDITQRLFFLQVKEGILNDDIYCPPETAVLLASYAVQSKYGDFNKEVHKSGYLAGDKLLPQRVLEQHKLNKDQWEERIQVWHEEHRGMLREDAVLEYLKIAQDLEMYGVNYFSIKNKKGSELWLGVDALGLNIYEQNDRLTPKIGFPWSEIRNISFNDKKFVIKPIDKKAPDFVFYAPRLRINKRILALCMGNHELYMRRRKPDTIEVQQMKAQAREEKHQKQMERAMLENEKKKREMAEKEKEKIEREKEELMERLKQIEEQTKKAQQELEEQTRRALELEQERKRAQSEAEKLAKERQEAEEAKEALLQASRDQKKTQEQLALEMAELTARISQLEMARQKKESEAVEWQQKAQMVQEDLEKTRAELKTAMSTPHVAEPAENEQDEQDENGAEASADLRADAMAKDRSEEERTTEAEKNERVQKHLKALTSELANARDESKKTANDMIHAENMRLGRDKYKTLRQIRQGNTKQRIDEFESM

Row | binding to Moesin [1] | shift in melting temperature of Moesin [2] | binding to the control GST [3] | binding relative to P1 [5] | Structure (SMILES) | HLA-DR level [4]
1 | binding specifically | discrete shift | did not bind |  | CN1CCC(Cc2noc(CCc3nc4cccnc4n3C)n2)CC1 [P1] | reduced
2 |  |  |  | improved binding | CC(Oc1ccc2c(c1)OCO2)c1nc(CC2CCN(C)CC2)no1 (centres unmarked) [Plsar3] | 
